According to PMC10797628:
Residue numbers refer to the chain shown, from its start. Like-named read-outs stand apart in the source and are kept apart here.

Assays:
[1] = target: T1, S5.42A 5-HT1A receptor (Homo sapiens, UniProt P08908, S199A); assay: cAMP accumulation in HEK293T cells, S5.42A 5-HT1A; type: cell-based; set-up: mutated in house (Quikchange II) HTR01A0000; host or cells: HEK293T; conditions: point-mutated receptor, 3 independent experiments, read-out: pEC50 5-HT1A Receptor S5.42A (converted)
T1 sequence (P08908 1-422 S199A): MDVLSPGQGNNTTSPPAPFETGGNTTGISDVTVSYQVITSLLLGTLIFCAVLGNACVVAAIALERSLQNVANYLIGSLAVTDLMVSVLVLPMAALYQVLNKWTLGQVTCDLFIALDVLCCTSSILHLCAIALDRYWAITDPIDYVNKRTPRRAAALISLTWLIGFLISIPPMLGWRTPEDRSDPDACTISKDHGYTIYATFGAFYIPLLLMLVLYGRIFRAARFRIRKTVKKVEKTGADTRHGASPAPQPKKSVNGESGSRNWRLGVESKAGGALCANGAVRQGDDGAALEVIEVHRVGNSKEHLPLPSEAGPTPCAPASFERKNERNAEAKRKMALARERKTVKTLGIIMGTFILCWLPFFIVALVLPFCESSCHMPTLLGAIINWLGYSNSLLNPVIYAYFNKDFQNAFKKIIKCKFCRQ
Protocol: (§1) Briefly, cells transfected with the desired receptor construct and compounds were incubated in the dark for 90 min at 37 °C. After incubation, cAMP detection reagents were added, and TR-FRET was used to quantify the cAMP produced.
(§2) The functional activity of compounds was determined by stimulating cells expressing the desired receptor with FSK and test compound in parallel with 12 known concentrations of cAMP. The known concentrations of cAMP were used to create a standard curve for each experiment that was used to interpolate the unknown values of cAMP in wells with test compounds. […] The EC50 and EMAX values were determined using the “dose response – log[agonist] vs response (three parameter)” nonlinear regression model in Prism and transformed to pEC50 values, reported as mean ± SD.
(§3) Summary of functional assay conditions at various 5-HT1 receptor point mutation constructs.

[2] = target: T2, N7.39T 5-HT1A receptor (Homo sapiens, UniProt P08908, N386T); assay: Radioligand binding, N7.39T 5-HT1A
T2 sequence (P08908 1-422 N386T): T1 sequence (P08908 1-422 S199A) with A199S, N386T
Protocol: (§4) 48 hours after transfection with the desired receptor construct, cells were isolated for saturation and competition binding assays as previously described.[47],[48],[57] Saturation and competition radioligand binding assays were conducted in an assay buffer consisting of 50 mM Tris HCl, 10 mM MgCl2, and 0.1 mM EDTA in filtered deionized water. […] Briefly, 5–10 μg of the receptor protein, as determined by a Thermo Fisher Pierce BCA protein assay kit, was incubated with 8 concentrations of radioligand in triplicate to determine total binding. […] Nonspecific binding was determined as above for saturation assays.
(§5) For radioligand binding data, nonspecific binding was subtracted from the total binding to get specific binding. Saturation binding data was fit to the “binding saturation-specific binding with hill slope” model. Competition binding data were fit to the “binding competition-one-site fit Ki” non-linear regression model and transformed to pKi values, reported as mean ± SD.
(§6) is 50 mM Tris HCl, 10 mM MgCl2 and 0.1 mM EDTA in filtered deionized water.

[3] = target: T3, human 5-HT1A receptor (Homo sapiens, UniProt P08908); assay: Radioligand binding (saturation and competition), WT 5-HT1A
T3 construct: host or cells: HEK293T
T3 sequence (P08908 1-422): T1 sequence (P08908 1-422 S199A) with A199S

[4] = target: T4, Y5.38F 5-HT1A receptor (Homo sapiens, UniProt P08908, Y195F); assay: Radioligand binding, Y5.38F 5-HT1A
T4 sequence (P08908 1-422 Y195F): T1 sequence (P08908 1-422 S199A) with Y195F, A199S
Protocol: as §4, §5, §6

[5] = target: T4, Y5.38F 5-HT1A receptor; assay: cAMP accumulation in HEK293T cells, Y5.38F 5-HT1A; type: cell-based; set-up: mutated in house (Quikchange II) HTR01A0000; host or cells: HEK293T; conditions: point-mutated receptor, 3 independent experiments, read-out: pEC50 5-HT1A Receptor Y5.38F (converted)
Protocol: as §1, §2, §3

Row | SMILES | EC50 [1] [nM] | Ki [2] [nM] | Ki ([3]; read-out: Affinity (pKi ± SD) 5-HT1A (converted)) [nM] | Ki [4] [nM] | EC50 [5] [nM] | Ki ([3]; Affinity (pKi ± SD) 5-HT1A, WT receptor, [^3H]5-CT competition, mean ± SD) [nM]
1 | Fc1ccccc1-c1cccc2c1CC[C@H](N1CCCC1)C2 [(S)-PFPT] | 1.62 | 8.51 | 1.26 | 1.74 | 2.09 | 
2 | CN(C)[C@H]1CCc2c(cccc2-c2cccc3ccccc23)C1 [(S)-NAP] | 363 | 66.1 |  | 60.3 | 380 | 61.7
